Assay results from patent publication US11136315B2, “CXCR2 antagonist” (MEDSHINE DISCOVERY INC., priority 2018, dated 2021).

Tests used:
[1] = Pharmacokinetic and tissue distribution in Lewis rats; assay type: in vivo; details: male, rat, lung / plasma, oral, 5 mg/kg, gavage 5 mpk, read-out: Ratio in lung blood
Protocol: The pharmacokinetic and tissue distribution of the compounds in Lewis rats was tested.
Lewis rats (male, 202-239 g, 7-9 weeks old, Beijing Viton Lihua)
Formulations containing an aqueous solution of 1% hydroxypropyl methylcellulose/0.2% Tween 80 as the vehicle were administered by gavage (5 mpk). Before the animal experiment, all animals were fasted overnight, and fed 4 hours after administration; all animals were free to drink water. The time points of blood collection: danirixin administration group: 0.25, 1, 8 hours; gavage administration group: 0.5, 1, 4 hours.
(§1) Whole blood samples (0.2 mL) were collected through the saphenous vein (or other suitable blood collection sites) at the prescribed time points, and all blood samples were added to labeled plastic centrifuge tubes containing K2-EDTA anticoagulant. After the blood samples were collected, the plasma was separated by centrifugation, immediately placed in dry ice and stored at low temperature. All samples were analyzed by LC-MS/MS with a minimum detection limit of 2 nM. The non-compartmental model of WinNonlin™ Version 6.3 (Pharsight, Mountain View, Calif.) pharmacokinetic software was used to process the mean plasma concentration, and the log-linear trapezoid method was used to calculate the pharmacokinetic parameters.

[2] = tested on: PPE-induced COPD model; experiment: Therapeutic effect on PPE-induced COPD model, flow cytometry of inflammatory cells; assay type: in vivo, C57BL/6 mice; details: PPE-induced mouse COPD model, daily gavage 4 weeks, high dose (120 mpk)
Protocol: The therapeutic effect of the compounds on PPE-induced COPD model in C57BL/6 mice was tested. Animals: C57BL/6 mice (female, 17.5-18.5 g, 6-8 weeks old) Drugs: Porcine pancreas elastase (PPE) (sigma, 0.068 U/μL); compound 1 in FIG. 1, FIG. 2 and FIG. 3 is danirixin; compound 2 is WX006A. Grouping: (1) COPD model group (porcine pancreatic elastase model group) • (2) PPE+ danirixin (40 mpk) • (3) PPE+ danirixin (120 mpk) • (4) PPE+WX006A (4 mpk) • (5) PPE+WX006A (12 mpk) 1. Modeling method: PPE was administered through by drip transfusion at the back of the tongue. 2. Administration method: an aqueous solution of 1% DMSO/1% hydroxypropyl methylcellulose/0.2% Tween 80 was used as the vehicle; the animals were daily administered with a volume of 200 μL/animal by gavage for 4 weeks. 3. End point of the experiment: On the 29th day, the mice were euthanized, samples were collected, and flow cytometry was performed. The blood, alveolar lavage fluid and lung tissue of the mice were collected after 4 weeks of administration to determine the percentage of inflammatory cells. 1) Alveolar lavage cells: the mice were euthanized. […] 3) The cells were counted and the cell suspensions were transferred into flow cytometry tubes. […] 5) After washing the cells, the percentage of neutrophils and monocytes in CD45^+ cells was determined using a flow cytometer.

[3] = Pharmacokinetic evaluation in C57BL/6 mice; assay type: in vivo; details: male, mouse, plasma
Protocol: The pharmacokinetic parameters of the compounds in C57BL/6 mice were investigated.
C57BL/6 mice (male, 18-30 g, 7-9 weeks old, Shanghai Lingchang Biotechnology Co., Ltd.)
Formulations containing an aqueous solution of 1% DMSO/10% hydroxypropyl-β-cyclodextrin as the vehicle were administered by intravenous injection (1 mpk), formulations containing an aqueous solution of 1% DMSO/1% hydroxypropyl methylcellulose/0.2% Tween 80 as the vehicle were administered by gavage (5 mpk). Before the animal experiment, all animals were fasted, and fed 4 hours after administration; all animals were free to drink water. The time points of blood collection: intravenous injection administration group: 0.083, 0.25, 0.5, 1, 2, 4, 6, 8 and 24 hours; gavage administration group: 0.25, 0.5, 1, 2, 4, 6, 8 and 24 hours.
as §1, with “(0.03” for “(0.2”, “isolated” for “separated”, “linear-log” for “log-linear”

- Kp [1]: 1.57
- clearance ([3]; intravenous 1 mpk / gavage 5 mpk study): 42.5 mL/min/kg
- half-life ([3]; intravenous 1 mpk / gavage 5 mpk study, read-out: Half-life T1/2 (converted)): 7.43 h
- AUC ([3]; intravenous 1 mpk / gavage 5 mpk study, route not stated, unit printed shifted under first column, read-out: Area under the drug concentration time curve (AUC)): 1.58 µM·h
- bioavailability ([3]; po, 5 mg/kg, gavage 5 mpk vs intravenous 1 mpk, read-out: Bioavailability (F)): 34.3%
SMILES: Cc1c(F)cccc1NC(=O)Nc1ccc(Cl)c(S(=O)(=O)[C@H]2CCCNC2)c1O [Danirixin, danirixin, reference compound]
- proportion of monocytes in the alveolar lavage fluid [2]: significant effect of reducing
- proportion of neutrophils in the alveolar lavage fluid [2]: significant effect of reducing
